Numbers after ± are expanded uncertainties.
Tests used:
[1] = 298.15 K; 101.33 kPa; Liquid; Vibrating tube method
[2] = refractive index (Na D-line) (dimensionless); settings: 298.15 K; 101.33 kPa; Liquid; Standard Abbe refractometry

| SMILES | mass density [1] [kg/m3] | refractive index [2] |
| --- | --- | --- |
| CCCCn1cc[n+](C)c1.F[P-](F)(F)(F)(F)F [1-butyl-3-methylimidazolium hexafluorophosphate] | 1367.4 ± 2.1 | 1.4095 ± 0.0008 |
| CCO [ethanol] | 786.47 ± 2 | 1.3594 ± 0.0008 |
| O [water] |  | 1.3325 ± 0.0008 |
